IC50 data for 43 molecules are collected here from patent US7893074B2, “2, 4-pyrimidinediamines useful in the treatment of neoplastic diseases, inflammatory and immune system disorders” (Novartis AG, priority 2003, dated 2011).

Where two headings read alike, the source gives them in different places.

In test [1] the target is Focal Adhesion Kinase (FAK) (Homo sapiens, UniProt Q05397). Put plainly: FAK assay system (Focal Adhesion Kinase inhibition). The conditions noted are these: read-out: FAK IC50. Type of test: biochemical.
In a further test the target is FAK (Mus musculus, UniProt P34152). The test is described as follows: Phos IC50 (phosphorylation). Type of test: cell-based.
The test system of test [2] is Mouse mammary carcinoma 4T1 cells. Put plainly: Anchorage-independent tumor cell growth assay. Type of test: cell-based. The protocol:
Cells are cultured for 2 h and inhibitors are added at various concentrations in a final concentration of 0.1% DMSO. After 48 h, cell growth is assayed with the cell counting kit-8 (Wako Pure Chemical), which uses a water soluble tetrazolium salt WST8. Twenty μL of the reagent is added into each well and cells are further cultured for 2 h. The optical density is measured at 450 nm.

Chain of FAK (P34152 2-1052): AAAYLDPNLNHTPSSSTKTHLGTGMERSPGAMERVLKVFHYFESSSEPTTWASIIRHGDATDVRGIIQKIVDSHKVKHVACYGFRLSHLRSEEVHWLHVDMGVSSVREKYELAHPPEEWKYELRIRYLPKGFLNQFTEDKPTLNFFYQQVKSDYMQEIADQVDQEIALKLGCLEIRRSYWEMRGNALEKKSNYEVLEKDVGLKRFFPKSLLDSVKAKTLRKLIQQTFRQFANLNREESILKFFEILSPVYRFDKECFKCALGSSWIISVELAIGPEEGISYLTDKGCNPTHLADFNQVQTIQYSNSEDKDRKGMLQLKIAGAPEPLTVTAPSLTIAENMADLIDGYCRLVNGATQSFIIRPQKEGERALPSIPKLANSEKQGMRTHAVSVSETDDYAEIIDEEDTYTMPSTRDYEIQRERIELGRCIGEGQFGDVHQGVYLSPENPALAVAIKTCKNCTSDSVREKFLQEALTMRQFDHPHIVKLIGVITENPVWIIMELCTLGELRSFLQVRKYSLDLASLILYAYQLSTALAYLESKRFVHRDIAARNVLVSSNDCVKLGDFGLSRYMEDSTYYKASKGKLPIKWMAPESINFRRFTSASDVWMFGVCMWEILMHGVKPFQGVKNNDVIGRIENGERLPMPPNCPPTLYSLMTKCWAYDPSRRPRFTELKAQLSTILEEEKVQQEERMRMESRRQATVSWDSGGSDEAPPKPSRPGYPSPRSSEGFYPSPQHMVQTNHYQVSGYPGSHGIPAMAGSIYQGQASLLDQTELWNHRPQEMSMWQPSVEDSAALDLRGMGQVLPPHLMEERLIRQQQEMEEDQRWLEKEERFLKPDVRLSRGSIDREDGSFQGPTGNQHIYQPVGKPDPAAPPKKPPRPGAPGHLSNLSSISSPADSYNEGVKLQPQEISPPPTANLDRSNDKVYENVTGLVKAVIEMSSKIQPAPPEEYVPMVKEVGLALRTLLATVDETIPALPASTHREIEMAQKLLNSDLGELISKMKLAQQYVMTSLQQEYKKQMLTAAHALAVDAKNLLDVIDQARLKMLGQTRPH
Chain of Focal Adhesion Kinase (FAK) (Q05397 384-706): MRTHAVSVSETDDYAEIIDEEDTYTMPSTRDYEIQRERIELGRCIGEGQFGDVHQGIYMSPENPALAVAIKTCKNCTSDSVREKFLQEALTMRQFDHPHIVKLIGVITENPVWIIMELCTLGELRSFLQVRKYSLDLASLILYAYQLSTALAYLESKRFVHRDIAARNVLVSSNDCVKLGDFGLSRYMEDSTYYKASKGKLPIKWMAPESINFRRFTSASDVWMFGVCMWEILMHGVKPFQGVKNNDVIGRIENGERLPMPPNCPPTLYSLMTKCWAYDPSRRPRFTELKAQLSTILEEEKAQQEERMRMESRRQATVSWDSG

For the molecule `CNS(=O)(=O)c1ccccc1Nc1nc(Nc2cc(C(=O)N3CCOCC3)ccc2C)ncc1Br` [Example 3-22], the IC50 in test [1] amounted to 120 nM; against FAK, 900 nM; in test [2] (Mus musculus, 4T1), 2000 nM.
The matching figures for `CNC(=O)c1ccccc1Nc1nc(Nc2ccc(N3CCC(OCCOC)CC3)cc2OC)ncc1Cl` [Example 7-10]: 6.6 nM, 1000 nM and 980 nM.
The matching figures for `CCC(CC)NS(=O)(=O)c1ccccc1Nc1nc(Nc2ccc(OCCN3CCOCC3)cc2OC)ncc1Cl` [Example 23-8]: 6.7 nM, 300 nM and 490 nM.
As to `COc1c(Nc2ncc(Cl)c(Nc3ccccc3S(=O)(=O)NC(C)C)n2)ccc(OC2CCN(C)CC2)c1F` [Example 19-21], the IC50 is 84 nM in test [1]; greater than 10000 nM against FAK; 1710 nM in test [2] (Mus musculus, 4T1).
Regarding `CNS(=O)(=O)c1ccccc1Nc1nc(Nc2ccc(N3CCCC(C(N)=O)C3)cc2OC)ncc1Cl` (stereo not drawn) [Example 20-15], the values for the IC50 (in test [1]; against FAK; in test [2]) were 14 nM, 400 nM and 970 nM, respectively.
`CCCCCS(=O)(=O)c1ccccc1Nc1nc(Nc2ccc(N3CCOCC3)cc2OC)ncc1Cl` [Example 34-3]: the IC50 in test [1] stood at 33 nM; against FAK, 190 nM; in test [2] (Mus musculus, 4T1), 2250 nM.
The matching figures for `COc1cc(N2CCC(C(N)=O)CC2)ccc1Nc1ncc(Cl)c(Nc2ccccc2S(=O)(=O)C(C)C)n1` [Example 28-15]: 10 nM, 500 nM and 690 nM.
Regarding `CCNC(=O)c1cc(F)ccc1Nc1nc(Nc2ccc(N3CCOCC3)cc2OC)ncc1Cl` [Example 14-5], the IC50 was 37 nM in test [1]; greater than 10000 nM against FAK; 1000 nM in test [2] (Mus musculus, 4T1).
The matching figures for `CCCS(=O)(=O)c1cc(N2CCN(C)CC2)ccc1Nc1nc(Nc2ccc(F)cc2OC)ncc1Cl` [Example 34-8]: 8.7 nM, greater than 10000 nM and 1900 nM.
The matching figures for `CNS(=O)(=O)c1ccccc1Nc1nc(Nc2cc(C)cc(C)c2C)ncc1Br` [Example 3-16]: 48 nM, 1100 nM and 3000 nM.
On to `CNS(=O)(=O)c1ccccc1Nc1nc(Nc2cc(C(=O)NC3CCCCC3)ccc2C)ncc1Br` [Example 3-23], for which the IC50 was 38 nM in test [1]; 390 nM against FAK; 500 nM in test [2] (Mus musculus, 4T1).
The matching figures for `CNS(=O)(=O)c1ccccc1Nc1nc(Nc2ccc(F)cc2Cl)ncc1Br` [Example 3-37]: 39 nM, 1100 nM and 2600 nM.
The matching figures for `COc1cc(F)ccc1Nc1ncc(Cl)c(Nc2ccccc2S(=O)(=O)NCC(F)(F)F)n1` [Example 16C]: 28 nM, 900 nM and greater than 10000 nM.
With `COCC1CCN(c2ccc(Nc3ncc(Cl)c(Nc4ccccc4S(=O)(=O)C(C)C)n3)c(OC)c2)CC1` [Example 28-10], the IC50 in test [1] is 20 nM; against FAK, 3000 nM; in test [2] it was 1850 nM.
As to `CCS(=O)(=O)c1ccccc1Nc1nc(Nc2ccc(N3CCC(N4CCOCC4)CC3)cc2OC)ncc1Cl` [Example 27-4], the IC50 in test [1] was 11 nM; at FAK it was 100 nM; in test [2] (Mus musculus, 4T1) it was 270 nM.
Take `COc1cc(N2CCOCC2)ccc1Nc1ncc(Cl)c(Nc2ccccc2S(=O)(=O)N2CCOCC2)n1` [Example 14-7]: the IC50 in test [1] worked out at 7.5 nM; on FAK, 200 nM; in test [2] (Mus musculus, 4T1), 1400 nM.
For `COc1cc(-n2cncn2)ccc1Nc1ncc(Cl)c(Nc2ccccc2S(=O)(=O)C2CC2)n1` [Example 30-4], the IC50 is 25 nM in test [1]; 300 nM on FAK; 990 nM in test [2] (Mus musculus, 4T1).
Consider `COc1cc(N2CCN(C(C)=O)CC2)ccc1Nc1ncc(Cl)c(Nc2ccccc2S(=O)(=O)C(C)C)n1` [Example 28-11], for which the IC50 in test [1] was 4.2 nM; against FAK, 500 nM; in test [2] it was 630 nM.
As for `CNC(=O)c1ccccc1Nc1nc(Nc2ccc(N3CCC(C(N)=O)CC3)cc2OC)ncc1Cl` [Example 7-13], the IC50 in test [1] was 5.5 nM; against FAK, 800 nM; in test [2] (Mus musculus, 4T1), 1220 nM.
The matching figures for `CNS(=O)(=O)c1ccccc1Nc1nc(Nc2ccc(OCC3CCN(C)CC3)cc2OC)ncc1Cl` [Example 20-25]: 6.2 nM, 210 nM and 60 nM.
For the molecule `COc1cc(N2CCN(C(C)C)CC2)ccc1Nc1ncc(Cl)c(Nc2ccccc2S(=O)(=O)C(C)C)n1` [Example 28-14], the IC50 in test [1] turned out to be 3 nM; on FAK, 100 nM; in test [2] (Mus musculus, 4T1), 1440 nM.
For the molecule `CCCS(=O)(=O)c1ccccc1Nc1nc(Nc2ccc(NCCN3CCOCC3)cc2OC)ncc1Cl` [Example 26-16], the IC50 was found to be 9 nM in test [1]; 320 nM against FAK; 2000 nM in test [2] (Mus musculus, 4T1).
On to `CCCS(=O)(=O)c1ccccc1Nc1nc(Nc2ccc(OCCN3CCCC3=O)cc2OC)ncc1Cl` [Example 26-18], for which the IC50 came out at 1.3 nM in test [1], 6000 nM against FAK and 1170 nM in test [2].
Take `CC(C)NS(=O)(=O)c1ccccc1Nc1nc(Nc2ccc(OCCN3CCOCC3)cc2F)ncc1Cl` [Example 19-26]: the IC50 in test [1] is 6.1 nM; at FAK, 100 nM; in test [2] (Mus musculus, 4T1) it was 300 nM.
The matching figures for `CNS(=O)(=O)c1ccccc1Nc1nc(Nc2cc(F)ccc2Cl)ncc1Br` [Example 3-38]: 64 nM, 1700 nM and 3800 nM.
Take `COc1cc(N2CCC(N3CCN(C)CC3)CC2)ccc1Nc1ncc(Cl)c(Nc2ccccc2S(=O)(=O)C2CC2)n1` [Example 30-7]: the IC50 in test [1] is 8.8 nM; at FAK, 600 nM; in test [2] (Mus musculus, 4T1), 470 nM.
Regarding `CCC(CC)NS(=O)(=O)c1ccccc1Nc1nc(Nc2ccc(N3CCOCC3)cc2OC)ncc1Cl` [Example 23-6], the IC50 in test [1] turned out to be 16 nM; at FAK it was 1000 nM; in test [2] (Mus musculus, 4T1), 570 nM.
The matching figures for `COc1cc(N2CCC(N3CCCCC3)CC2)ccc1Nc1ncc(Cl)c(Nc2ccccc2S(=O)(=O)NC(C)C)n1` [Example 19-27]: 1.5 nM, 300 nM and 400 nM.
The matching figures for `CNS(=O)(=O)c1ccccc1Nc1nc(Nc2ccc(N3CCC(NC(C)=O)C3)cc2OC)ncc1Cl` (stereo not drawn) [Example 20-5]: 6.8 nM, 870 nM and 1460 nM.
As to `CNS(=O)(=O)c1ccccc1Nc1nc(Nc2ccc(C)cc2F)ncc1Br` [Example 3-4], the IC50 in test [1] was 32 nM; against FAK, 530 nM; in test [2] (Mus musculus, 4T1) it was 2000 nM.
For the molecule `COc1cc(F)ccc1Nc1ncc(Cl)c(Nc2ccccc2S(=O)(=O)NC(C)C)n1` [Example 19-6], the IC50 turned out to be 5 nM in test [1]; 1000 nM against FAK; 700 nM in test [2] (Mus musculus, 4T1).
In the case of `CNS(=O)(=O)c1ccccc1Nc1nc(Nc2cc(N3CCOCC3)ccc2C)ncc1Br` [Example 3-20], the IC50 in test [1] was found to be 16 nM; at FAK, 220 nM; in test [2] (Mus musculus, 4T1), 300 nM.
The matching figures for `COc1cc(N2CCCC(C(N)=O)C2)ccc1Nc1ncc(Cl)c(Nc2ccccc2S(=O)(=O)C2CC2)n1` (stereo not drawn) [Example 30-3]: 19 nM, 500 nM and 680 nM.
The matching figures for `CNS(=O)(=O)c1ccccc1Nc1nc(Nc2cc(OC3CCNCC3)ccc2OC)ncc1Br` [Example 3-78]: 10 nM, greater than 10000 nM and 220 nM.
Take `CCS(=O)(=O)c1ccccc1Nc1nc(Nc2ccc(N3CCC(N4CCCCC4)CC3)cc2OC)ncc1Cl` [Example 27-2]: the IC50 in test [1] was 5.1 nM; at FAK, 500 nM; in test [2] (Mus musculus, 4T1), 1100 nM.
Turning to `CNC(=O)c1cc(N2CCOCC2)ccc1Nc1nc(Nc2ccc(N3CCN(C(C)=O)CC3)cc2OC)ncc1Cl` [Example 18-1], the IC50 in test [1] was 19 nM; against FAK it was greater than 10000 nM; in test [2] (Mus musculus, 4T1) it was 1290 nM.
The matching figures for `COc1cc(N2CCC(N3CCCC3)CC2)ccc1Nc1ncc(Cl)c(Nc2ccccc2S(=O)(=O)NC(C)C)n1` [Example 19-15]: 3.1 nM, 500 nM and 360 nM.
With `CNS(=O)(=O)c1ccccc1Nc1nc(Nc2ccccc2OC(F)F)ncc1Cl` [Example 20-4], the concentration for half-maximal inhibition (IC50) was 23 nM in test [1]; 580 nM on FAK; 1900 nM in test [2] (Mus musculus, 4T1).
As for `CNS(=O)(=O)c1ccccc1Nc1nc(Nc2ccc(OC3CCN(C(C)=O)CC3)cc2OC)ncc1Br` [Example 3-74], the IC50 in test [1] turned out to be 15 nM; at FAK, 100 nM; in test [2] (Mus musculus, 4T1) it was 150 nM.
Turning to `CCC(C)NS(=O)(=O)c1ccccc1Nc1nc(Nc2ccc(OCCN3CCOCC3)cc2OC)ncc1Cl` (stereo not drawn) [Example 21-4], the IC50 in test [1] stood at 1.8 nM; at FAK, 50 nM; in test [2] (Mus musculus, 4T1), 300 nM.
The matching figures for `COc1cc(N2CCN(C)C(=O)C2)ccc1Nc1ncc(Cl)c(Nc2ccccc2S(=O)(=O)C(C)C)n1` [Example 28-23]: 5.9 nM, 500 nM and 280 nM.
On to `CNC(=O)c1ccccc1Nc1nc(Nc2ccc(N3CCN(C(C)=O)CC3)cc2OC)ncc1Cl` [Example 7-7], for which the IC50 is 4.1 nM in test [1]; 900 nM against FAK; 180 nM in test [2] (Mus musculus, 4T1).
Regarding `COc1cc(N2CCC(OC)C2)ccc1Nc1ncc(Cl)c(Nc2ccccc2S(=O)(=O)C(C)C)n1` (stereo not drawn) [Example 28-17], the IC50 in test [1] stood at 15 nM; against FAK, 160 nM; in test [2] (Mus musculus, 4T1), 1900 nM.

The term IC50 denotes the concentration that inhibits the measured activity by half.
